Experimental data from publication PMC8464048 (Nucleic Acids Research, 2021).

Molecular target: T1, EcGlyRS-FL (heterotetrameric (αβ)2 glycyl-tRNA synthetase) (Escherichia coli, UniProt P00960+P00961)
T1 construct: gene glyQ; full-length alpha (1-303) and full-length beta (1-689, C-terminal 6xHis), co-expressed in E. coli BL21(DE3); (αβ)2 heterotetramer
T1 sequence (P00960 1-303): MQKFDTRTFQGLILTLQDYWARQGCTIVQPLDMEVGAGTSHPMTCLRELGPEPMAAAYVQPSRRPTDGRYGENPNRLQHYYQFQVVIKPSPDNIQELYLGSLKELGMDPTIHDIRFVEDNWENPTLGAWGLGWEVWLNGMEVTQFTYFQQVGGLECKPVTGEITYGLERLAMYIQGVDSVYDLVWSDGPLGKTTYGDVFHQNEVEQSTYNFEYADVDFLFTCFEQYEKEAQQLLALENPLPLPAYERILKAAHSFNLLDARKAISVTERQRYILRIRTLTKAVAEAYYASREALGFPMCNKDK
T1 sequence (P00961 1-689): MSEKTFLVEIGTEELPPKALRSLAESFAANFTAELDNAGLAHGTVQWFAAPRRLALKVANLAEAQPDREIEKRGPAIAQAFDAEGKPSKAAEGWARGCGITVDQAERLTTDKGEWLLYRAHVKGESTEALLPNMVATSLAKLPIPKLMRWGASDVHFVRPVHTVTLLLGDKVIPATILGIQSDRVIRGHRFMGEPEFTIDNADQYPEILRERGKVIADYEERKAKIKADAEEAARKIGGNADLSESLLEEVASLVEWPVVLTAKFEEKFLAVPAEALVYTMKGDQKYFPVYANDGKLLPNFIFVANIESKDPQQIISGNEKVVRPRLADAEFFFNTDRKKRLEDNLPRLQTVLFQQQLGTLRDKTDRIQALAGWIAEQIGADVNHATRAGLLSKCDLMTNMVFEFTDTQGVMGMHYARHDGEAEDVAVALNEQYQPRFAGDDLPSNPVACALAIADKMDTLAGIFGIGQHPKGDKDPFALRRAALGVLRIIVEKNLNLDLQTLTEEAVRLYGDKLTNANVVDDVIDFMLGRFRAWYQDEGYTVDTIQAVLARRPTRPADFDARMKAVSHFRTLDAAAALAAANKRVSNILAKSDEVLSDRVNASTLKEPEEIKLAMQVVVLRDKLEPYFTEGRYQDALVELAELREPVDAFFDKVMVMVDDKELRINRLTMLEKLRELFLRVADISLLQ
Assay: isothermal titration calorimetry, one-site fit
Type: binding

`Nc1ncnc2c1ncn2[C@@H]1O[C@H](COP(=O)(O)OP(=O)(O)OP(=O)(O)O)[C@@H](O)[C@H]1O` [ATP] was tested, and the Kd was about 6 µM.
